The values that follow come from patent publication US10525056B2, “Procaspase-activating compounds and methods” (The Board of Trustees of the University of Illinois, priority 2011, dated 2020).

Data set [1] deals with U-937 human lymphoma cells. In words: 72 Hour IC50 Cell Death Assay (sulforhodamine B). The class given is cell-based. The conditions noted are these: read-out: 72-hour IC50 (μM), U-937 cells, 72 h treatment, average ± SEM of three experiments. How it is done:
U-937 human lymphoma cells were plated into the wells of 96 well plate at a density of 15,000 cells per well in 99 μL of RPMI 1640 growth media with 10% FBS and 1% pen-strep. To each well was added 1 μL of compound stock solutions in DMSO at varying concentrations such that the cells were treated with concentrations between 0 μM and 100 μM compound. Each concentration was tested in quintuplicate per plate. In each plate 5 wells received 20 μM doxorubicin as a positive death control and 5 wells received […] as a negative control.
After the 72 hour incubation period, the plates were analyzed using a Sulforhodamine B assay (Vichai and Kirtikara, Nat Protoc 2006, 1, 1112-1116). Specifically, to each well of the plate 25 μL of a 50% (w/v) solution of trichloroacetic acid in H2O was added and the plates were incubated for 4 hours at 4° C. The plates were then washed gently with water five times. The plates were allowed to air dry after which 100 μL of a 0.057% (w/v) Sulforhodamine B in a 1% (v/v) acetic acid solution was added to each well for 30 minutes at room temperature. The plates were gently washed 5 times with 1% (v/v) acetic acid and air dried. 200 μL of 10 mM Tris base (pH 10.4) was added to each well and the plates were placed on an orbital shaker for thirty minutes. The level of SRB was quantified fluorometrically at excitation and emission wavelengths 488 and 585 nm, respectively, on a Molecular Devices plate reader and the percent cell death calculated and normalized to the positive control (100% cell death) and the negative control (0% cell death). The percent cell death was averaged for each compound concentration and plotted as a function of compound concentration. The data were fit to a logistical dose response curve using Table curve 2D and the IC50 value was calculated. The experiment was repeated three times and the average of the calculated IC50 values was reported. The standard error of the mean (SEM) was determined and reported for the triplicate experiments.

Another data set relates to U-937 cells. Kind of data set: Induction of apoptosis by hit compounds (Annexin V-FITC/propidium iodide flow cytometry). The format is cell-based. The conditions noted are these: Homo sapiens, 7.5 μM compound, 24 hours. How it is done:
U-937 Cells (1 mL of 6×10^5 cells/mL) were treated with 10 μL of 750 μM DMSO solutions of the compounds to achieve a final concentration of 7.5 μM. […] The cells were harvested via centrifugation (200 g for 5 minutes), washed with PBS (2 mL), and resuspended in 450 μL Annexin V Binding Buffer. To each sample was added 3.5 μL of FITC conjugated Annexin V stain (Southern Biotech) and 3.5 μL of propidium iodide (Sigma) to a final concentration of 50 μg/mL. Cell populations were analyzed on a Benton Dickinson LSR II cell flow cytometer.
(In general: Flow cytometry measures light scatter and fluorescence of single cells or particles in a stream.)

In data set [2] the test system is U-937 human lymphoma cells. Kind of data set: Cell death assay for initial screen (Annexin V-FITC/propidium iodide flow cytometry). The format is cell-based. The conditions noted are these: U-937 cells, 20 μM compound, 24 hours. How it is done:
Apoptotic cell death was assessed by flow cytometry, using Annexin V-FITC/propidium iodide staining.
Compound (2 μL of a 10 mM DMSO solution) was added in singlet by direct addition to a well containing 998 μL U-937 cells (1×10^6) in RPMI 1640 media (10% FBS) at a final compound concentration of 20 μM. […] The cells were double stained with FITC-Annexin V and propidium iodide and a cell population of at least 10,000 events was collected by the LSR II flow cytometer. Percent viable cells (Annexin V—negative, propidium iodide—negative) were determined using FCS Express software.

For data set [3] the following is noted: mice, for 48 hours; cited from earlier work.
The conditions of data set [4]: research dogs, for 48 hours; cited from earlier work.

Structures are written as SMILES. Like-named read-outs stand apart in the source and are kept apart here.

Broadly, the IC50 is the concentration that inhibits the measured activity by half. Regarding `COc1ccc(OC)c(CN2CCN(CC(=O)N/N=C/c3cc(C(C)(C)C)cc(C(C)(C)C)c3O)CC2)c1` [3{4,7}, N′-(3,5-di-tert-butyl-2-hydroxybenzylidene)-2-(4-(2,5-dimethoxybenzyl)piperazin-1-yl)acetohydrazide], the IC50 in data set [1] was 1.6 ± 0.2 µM. In addition, the cytotoxicity at 7.5 µM with U-937 cells worked out at 53%.
The corresponding values for `C=CCc1cccc(/C=N/NC(=O)CN2CCN(Cc3ccc(C(C)(C)C)cc3)CC2)c1O` [3{20,24}, N′-(3-allyl-2-hydroxybenzylidene)-2-(4-(4-(tert-butyl)benzyl)piperazin-1-yl)acetohydrazide] are 0.9 ± 0.03 µM and 83%.
With `COc1ccc(CN2CCN(CC(=O)N/N=C/c3cc(C(C)(C)C)cc(C(C)(C)C)c3O)CC2)cc1` [3{2,7}, N′-(3,5-di-tert-butyl-2-hydroxybenzylidene)-2-(4-(4-methoxybenzyl)piperazin-1-yl)acetohydrazide], the IC50 in data set [1] was found to be 1.8 ± 0.2 µM. This compound yielded a cytotoxicity at 7.5 µM in the data set on U-937 cells of 90%.
The corresponding values for `CC(C)(C)c1cc(/C=N/NC(=O)CN2CCN(Cc3ccc4ccccc4c3)CC2)c(O)c(C(C)(C)C)c1` [3{25,7}, N′-(3,5-di-tert-butyl-2-hydroxybenzylidene)-2-(4-(naphthalen-2-ylmethyl)piperazin-1-yl)acetohydrazide] are 1 ± 0.04 µM and 50%.
`C=CCc1cccc(/C=N/NC(=O)CN2CCN(Cc3ccccc3)CC2)c1O` [PAC-1]: the IC50 in data set [1] was 3.8 ± 0.4 µM. This compound came in with a cytotoxicity at 7.5 µM in the data set with U-937 cells of 21%. In data set [2], the “% cell death” value was roughly 50%. In addition, the “serum concentration at doses that can be safely administered” value in data set [3] and in data set [4] was roughly 10 µM throughout.
Turning to `CCc1ccc(CN2CCN(CC(=O)N/N=C/c3cc(C(C)(C)C)cc(C(C)(C)C)c3O)CC2)cc1` [3{28,7}, N′-(3,5-di-tert-butyl-2-hydroxybenzylidene)-2-(4-(4-ethylbenzyl)piperazin-1-yl)acetohydrazide], the 50% inhibitory concentration (IC50) in data set [1] turned out to be 2 ± 0.2 µM. Also, in the data set on U-937 cells, the cytotoxicity at 7.5 µM came to 70%.
For `CC(C)(C)c1cc(/C=N/NC(=O)CN2CCN(Cc3ccc(OCc4ccccc4)cc3)CC2)c(O)c(C(C)(C)C)c1` [3{18,7}, 2-(4-(4-(benzyloxy)benzyl)piperazin-1-yl)-N′-(3,5-di-tert-butyl-2-hydroxybenzylidene)acetohydrazide], in that order: 1.4 ± 0.2 µM and 97%.
